Test results taken from ChEMBL document CHEMBL4359898, “Pyrazolo-benzothiazole hybrids: Synthesis, anticancer properties and evaluation of antiangiogenic activity using in vitro VEGFR-2 kinase and in vivo transgenic zebrafish model” (Eur J Med Chem, 2019).

Assays:
HT-29 = assay: Cytotoxicity against human HT-29 cells assessed as reduction in cell viability incubated for 72 hrs by MTT assay; details: HT-29, 72 h
PC-3 = assay: Cytotoxicity against human PC3 cells assessed as reduction in cell viability incubated for 72 hrs by MTT assay; details: PC-3, 72 h
A549 = assay: Cytotoxicity against human A549 cells assessed as reduction in cell viability incubated for 72 hrs by MTT assay; details: A549, 72 h
U-87 MG = assay: Cytotoxicity against human U87MG cells assessed as reduction in cell viability incubated for 72 hrs by MTT assay
HEK-293T = assay: Cytotoxicity against HEK293T cells assessed as reduction in cell viability incubated for 72 hrs by MTT assay; details: Homo sapiens

Structure (SMILES) | IC50 (HT-29) [µM] | IC50 (PC-3) [µM] | IC50 (A549) [µM] | IC50 (U-87 MG) [µM] | IC50 (HEK-293T) [µM]
COc1ccc2nc(NC(=O)c3cn(-c4ccccc4)nc3-c3ccccc3)sc2c1 | > 50 | 17.5 | > 50 | 40.6 | > 50
COc1ccc2nc(NC(=O)c3cn(-c4ccccc4)nc3-c3ccc(F)cc3)sc2c1 | 33.2 | 12.8 | > 50 | > 50 | > 50
O=C(Nc1nc2ccc(F)cc2s1)c1cn(-c2ccccc2)nc1-c1ccc(Cl)cc1 | 4.97 | 5.79 | 8.86 | 7.77 | > 50
O=C(Nc1nc2ccccc2s1)c1cn(-c2ccccc2)nc1-c1ccccc1 | 16.8 | 10.4 | 13.5 | 8.96 | > 50
O=C(Nc1nc2ccc(F)cc2s1)c1cn(-c2ccccc2)nc1-c1ccccc1 | 9.8 | 3.25 | 10.2 | 5.57 | 17.6
COc1ccc(-c2nn(-c3ccccc3)cc2C(=O)Nc2nc3ccccc3s2)cc1 | 10.5 | 6.67 | 13.7 | 11.5 | 18.9
COc1ccc(-c2nn(-c3ccccc3)cc2C(=O)Nc2nc3ccc(C)cc3s2)cc1 | 21.5 | 15.9 | 27.7 | > 50 | > 50
O=C(Nc1nc2ccc(F)cc2s1)c1cn(-c2ccccc2)nc1-c1ccc(F)cc1 | 4.16 | 5.26 | 6.65 | 12.5 | 16.7
COc1ccc(-c2nn(-c3ccccc3)cc2C(=O)Nc2nc3ccc(F)cc3s2)cc1 | 5.56 | 4.93 | 7.56 | 8.99 | 15.4
COc1ccc(-c2nn(-c3ccccc3)cc2C(=O)Nc2nc3ccc(Cl)cc3s2)cc1 | 6.57 | 6.51 | 4.71 | 8.71 | 12.6
COc1ccc(-c2nn(-c3ccccc3)cc2C(=O)Nc2nc3ccc(OC)cc3s2)cc1 | > 50 | 13.5 | 18.9 | 5.89 | > 50
